Experiments:
[1] = target: T1, KIF3BB (Mus musculus, UniProt Q61771); experiment: Qdot single-molecule TIRF motility; assay type: biochemical; details: 10 μM AziPm; 1 mM MgATP, X-rhodamine microtubules, paclitaxel, 5% DMSO, pH 6.9, 25 °C
T1 construct: gene Kif3b; KIF3B Met1-Leu369, C-terminal EB1 dimerization motif, TEV site and His8 tag kept; E. coli; engineered homodimer, Mr 48,011 per chain
T1 sequence (Q61771 1-369): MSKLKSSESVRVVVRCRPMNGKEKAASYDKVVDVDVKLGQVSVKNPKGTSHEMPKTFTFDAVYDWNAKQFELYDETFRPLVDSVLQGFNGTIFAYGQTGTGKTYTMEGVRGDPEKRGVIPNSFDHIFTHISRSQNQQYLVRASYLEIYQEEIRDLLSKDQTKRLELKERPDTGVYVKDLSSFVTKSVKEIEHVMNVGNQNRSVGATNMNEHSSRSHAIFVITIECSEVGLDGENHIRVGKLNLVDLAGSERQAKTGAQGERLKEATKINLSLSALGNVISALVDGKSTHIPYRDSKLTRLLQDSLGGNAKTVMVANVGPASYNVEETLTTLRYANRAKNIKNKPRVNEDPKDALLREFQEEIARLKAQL

[2] = target: T2, KIF3CC (Mus musculus, UniProt O35066); experiment: Qdot single-molecule TIRF motility; assay type: biochemical; details: 10 μM AziPm; 1 mM MgATP, X-rhodamine microtubules, paclitaxel, 5% DMSO, pH 6.9, 25 °C
T2 construct: gene Kif3c; KIF3C Met1-Leu396, C-terminal EB1 dimerization motif, TEV site and His8 tag kept; E. coli; engineered homodimer
T2 sequence (O35066 1-396): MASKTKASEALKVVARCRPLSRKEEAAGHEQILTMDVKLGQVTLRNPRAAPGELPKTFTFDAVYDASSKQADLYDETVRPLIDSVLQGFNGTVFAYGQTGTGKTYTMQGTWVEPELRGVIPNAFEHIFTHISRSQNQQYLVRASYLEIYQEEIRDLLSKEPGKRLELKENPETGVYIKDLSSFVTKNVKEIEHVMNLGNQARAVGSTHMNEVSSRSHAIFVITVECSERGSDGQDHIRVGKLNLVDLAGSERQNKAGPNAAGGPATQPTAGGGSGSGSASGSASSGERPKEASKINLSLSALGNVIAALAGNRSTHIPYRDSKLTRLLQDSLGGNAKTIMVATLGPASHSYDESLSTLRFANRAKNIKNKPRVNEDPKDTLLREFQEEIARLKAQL

CC(C)c1ccc(C2(C(F)(F)F)N=N2)cc1O [AziPm, meta-azipropofol]
% decrease in run length at 10 μM [1]: ~ 50% | % decrease in run length at 10 μM [2]: ~ 35%

Source: paper PMC6065180, “An allosteric propofol-binding site in kinesin disrupts kinesin-mediated processive movement on microtubules” (The Journal of Biological Chemistry, 2018)
